Test results taken from ChEMBL document CHEMBL5241052, “Dual-target kinase drug design: Current strategies and future directions in cancer therapy” (Eur J Med Chem, 2020).
pIC50: −log10 of the molar value. Values belong to the molecule of their own block, whether it stands above or below them.

How the values were obtained:
MDA-MB-231 = test: Antiproliferative activity against MDA-MB-231 cells (unknown origin); format: functional, cell-based; details: Homo sapiens
4T1 = test: Antiproliferative activity against 4T1 cells (unknown origin); format: functional, cell-based; details: Mus musculus
[1] = target: T1, Epidermal growth factor receptor (Homo sapiens, UniProt P00533); test: Inhibition of human EGFR
[2] = target: Proto-oncogene tyrosine-protein kinase Src (Homo sapiens, UniProt P12931); test: Inhibition of Src (unknown origin)
BCPAP = test: Antiproliferative activity against human BCPAP cells harboring BRAF V600E mutation assessed as cell growth inhibition at 5 uM by cell counting assay; format: functional
[3] = Antiproliferative activity against human HTh7 cells harboring Ras mutation assessed as cell growth inhibition at 5 uM by cell counting assay; format: functional
Aurora kinase A = Aurora kinase A (Homo sapiens, UniProt O14965); test: Inhibition of AURA (unknown origin)
[4] = Antiproliferative activity against human C643 cells harboring Ras mutation assessed as cell growth inhibition at 5 uM by cell counting assay; format: functional
[5] = target: Serine/threonine-protein kinase mTOR (Homo sapiens, UniProt P42345); test: Inhibition of mTOR (unknown origin) by ELISA based kinase assay
SW-1736 = test: Antiproliferative activity against human SW-1736 cells harboring BRAF V600E mutation assessed as cell growth inhibition at 5 uM by cell counting assay; format: functional
FTC-133 = test: Antiproliferative activity against human FTC-133 cells harboring PTEN mutation assessed as cell growth inhibition at 5 uM by cell counting assay; format: functional
TPC1 = test: Antiproliferative activity against human TPC1 cells harboring RET/PTC mutation assessed as cell growth inhibition at 5 uM by cell counting assay; format: functional
[6] = Antiproliferative activity against human HTh104 cells harboring BRAF V600E mutation assessed as cell growth inhibition at 5 uM by cell counting assay; format: functional
MCF7 = test: Antiproliferative activity against human MCF7 cells at 10 uM by MTT assay; format: functional, cell-based
A-375 = test: Antiproliferative activity against human A-375 cells at 10 uM by MTT assay; format: functional, cell-based
COLO 205 = test: Antiproliferative activity against human COLO 205 cells at 10 uM by MTT assay; format: functional, cell-based
A549 = test: Antiproliferative activity against human A549 cells at 10 uM by MTT assay; format: functional, cell-based
HCT-116 = test: Antiproliferative activity against human HCT-116 cells at 10 uM by MTT assay; format: functional, cell-based
LoVo = test: Antiproliferative activity against human LoVo cells at 10 uM by MTT assay; format: functional, cell-based
[7] = target: Serine/threonine-protein kinase B-raf (Homo sapiens, UniProt P15056, V600E); test: Inhibition of human BRAF V600E mutant
[8] = target: Proto-oncogene tyrosine-protein kinase receptor Ret (Homo sapiens, UniProt P07949, V804M); test: Inhibition of RET V804M mutant (unknown origin) by invitro kinase assay
[9] = target: Proto-oncogene tyrosine-protein kinase receptor Ret (Homo sapiens, UniProt P07949); test: Inhibition of RET (unknown origin) by invitro kinase assay
[10] = target: Vascular endothelial growth factor receptor 2 (Homo sapiens, UniProt P35968); test: Inhibition of VEGFR2 (unknown origin) by invitro kinase assay
DU-145 = test: Antiproliferative activity against human DU-145 cells assessed as growth inhibition and measured after 96 hrs by micro plate reader analysis; format: functional, cell-based; details: DU-145, 96 h
MES-SA = test: Antiproliferative activity against human MES-SA cells assessed as growth inhibition and measured after 96 hrs by micro plate reader analysis; format: functional, cell-based
[11] = target: T1, Epidermal growth factor receptor; test: Inhibition of human EGFR phosphorylation by invitro enzyme assay

T1 sequence (P00533 whole entry): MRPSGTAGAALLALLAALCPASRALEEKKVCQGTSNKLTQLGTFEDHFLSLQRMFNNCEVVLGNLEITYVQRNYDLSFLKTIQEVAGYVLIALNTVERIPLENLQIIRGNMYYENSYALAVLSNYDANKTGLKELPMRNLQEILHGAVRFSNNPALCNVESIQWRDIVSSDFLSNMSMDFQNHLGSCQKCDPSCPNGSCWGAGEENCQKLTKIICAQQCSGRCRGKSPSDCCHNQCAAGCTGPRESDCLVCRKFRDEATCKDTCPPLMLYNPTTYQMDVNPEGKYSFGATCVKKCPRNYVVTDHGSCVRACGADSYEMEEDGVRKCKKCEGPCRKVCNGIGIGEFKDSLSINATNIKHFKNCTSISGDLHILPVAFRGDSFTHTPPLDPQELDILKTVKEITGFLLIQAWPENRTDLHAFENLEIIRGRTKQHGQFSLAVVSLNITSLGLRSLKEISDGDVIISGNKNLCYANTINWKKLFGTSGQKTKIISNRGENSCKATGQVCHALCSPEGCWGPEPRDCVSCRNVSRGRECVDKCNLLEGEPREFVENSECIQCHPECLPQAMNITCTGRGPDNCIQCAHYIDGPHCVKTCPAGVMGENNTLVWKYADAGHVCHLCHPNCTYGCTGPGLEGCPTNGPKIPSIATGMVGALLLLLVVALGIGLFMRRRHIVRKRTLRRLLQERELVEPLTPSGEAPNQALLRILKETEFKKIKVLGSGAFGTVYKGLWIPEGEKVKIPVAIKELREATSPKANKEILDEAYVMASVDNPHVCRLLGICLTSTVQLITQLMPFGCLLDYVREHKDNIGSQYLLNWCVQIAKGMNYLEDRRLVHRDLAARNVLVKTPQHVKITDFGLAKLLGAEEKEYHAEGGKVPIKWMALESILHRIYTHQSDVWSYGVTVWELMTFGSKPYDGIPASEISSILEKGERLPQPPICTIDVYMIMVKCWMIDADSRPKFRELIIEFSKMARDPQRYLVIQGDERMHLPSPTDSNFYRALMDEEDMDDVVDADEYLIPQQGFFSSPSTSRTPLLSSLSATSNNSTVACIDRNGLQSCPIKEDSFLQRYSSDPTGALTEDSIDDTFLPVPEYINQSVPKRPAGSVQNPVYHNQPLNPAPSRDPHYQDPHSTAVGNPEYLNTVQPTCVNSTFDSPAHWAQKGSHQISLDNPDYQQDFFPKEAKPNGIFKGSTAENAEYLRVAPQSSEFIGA
Proto-oncogene tyrosine-protein kinase Src, sequence (P12931 2-536 limits assumed): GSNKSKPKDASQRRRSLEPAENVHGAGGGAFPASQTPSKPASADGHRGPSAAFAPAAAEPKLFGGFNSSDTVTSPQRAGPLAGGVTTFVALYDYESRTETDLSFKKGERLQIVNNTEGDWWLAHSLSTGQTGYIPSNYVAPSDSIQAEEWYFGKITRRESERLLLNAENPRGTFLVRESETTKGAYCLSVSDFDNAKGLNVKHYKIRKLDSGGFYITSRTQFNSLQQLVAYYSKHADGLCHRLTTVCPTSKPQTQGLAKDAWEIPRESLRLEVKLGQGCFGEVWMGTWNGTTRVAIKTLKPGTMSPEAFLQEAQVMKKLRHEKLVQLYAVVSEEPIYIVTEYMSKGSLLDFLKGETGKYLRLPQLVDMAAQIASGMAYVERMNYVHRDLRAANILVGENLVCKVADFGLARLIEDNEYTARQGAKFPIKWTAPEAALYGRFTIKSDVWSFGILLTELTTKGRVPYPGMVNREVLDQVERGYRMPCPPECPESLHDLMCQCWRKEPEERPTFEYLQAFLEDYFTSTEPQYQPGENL
Serine/threonine-protein kinase B-raf, sequence (P15056 2-766 V600E limits assumed): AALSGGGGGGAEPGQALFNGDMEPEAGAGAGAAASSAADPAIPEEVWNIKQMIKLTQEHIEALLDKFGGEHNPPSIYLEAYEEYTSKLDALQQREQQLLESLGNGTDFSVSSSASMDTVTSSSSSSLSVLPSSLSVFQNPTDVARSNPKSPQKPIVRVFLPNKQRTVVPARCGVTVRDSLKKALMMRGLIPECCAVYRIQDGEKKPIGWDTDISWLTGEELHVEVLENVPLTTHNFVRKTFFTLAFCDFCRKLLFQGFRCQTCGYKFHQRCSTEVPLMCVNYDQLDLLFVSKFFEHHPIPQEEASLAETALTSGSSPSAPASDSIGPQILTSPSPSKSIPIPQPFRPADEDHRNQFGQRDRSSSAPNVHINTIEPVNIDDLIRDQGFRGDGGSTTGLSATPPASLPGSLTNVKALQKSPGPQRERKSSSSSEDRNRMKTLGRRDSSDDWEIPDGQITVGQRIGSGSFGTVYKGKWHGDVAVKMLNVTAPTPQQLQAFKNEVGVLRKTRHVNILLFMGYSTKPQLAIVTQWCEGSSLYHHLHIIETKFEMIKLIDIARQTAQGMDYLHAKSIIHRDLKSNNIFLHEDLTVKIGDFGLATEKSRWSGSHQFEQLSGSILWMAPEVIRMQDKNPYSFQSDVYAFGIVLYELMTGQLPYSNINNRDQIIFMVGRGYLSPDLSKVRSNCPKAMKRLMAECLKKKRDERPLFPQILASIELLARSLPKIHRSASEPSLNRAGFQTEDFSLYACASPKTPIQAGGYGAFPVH
Proto-oncogene tyrosine-protein kinase receptor Ret (Homo sapiens, UniProt P07949), sequence (P07949 whole entry): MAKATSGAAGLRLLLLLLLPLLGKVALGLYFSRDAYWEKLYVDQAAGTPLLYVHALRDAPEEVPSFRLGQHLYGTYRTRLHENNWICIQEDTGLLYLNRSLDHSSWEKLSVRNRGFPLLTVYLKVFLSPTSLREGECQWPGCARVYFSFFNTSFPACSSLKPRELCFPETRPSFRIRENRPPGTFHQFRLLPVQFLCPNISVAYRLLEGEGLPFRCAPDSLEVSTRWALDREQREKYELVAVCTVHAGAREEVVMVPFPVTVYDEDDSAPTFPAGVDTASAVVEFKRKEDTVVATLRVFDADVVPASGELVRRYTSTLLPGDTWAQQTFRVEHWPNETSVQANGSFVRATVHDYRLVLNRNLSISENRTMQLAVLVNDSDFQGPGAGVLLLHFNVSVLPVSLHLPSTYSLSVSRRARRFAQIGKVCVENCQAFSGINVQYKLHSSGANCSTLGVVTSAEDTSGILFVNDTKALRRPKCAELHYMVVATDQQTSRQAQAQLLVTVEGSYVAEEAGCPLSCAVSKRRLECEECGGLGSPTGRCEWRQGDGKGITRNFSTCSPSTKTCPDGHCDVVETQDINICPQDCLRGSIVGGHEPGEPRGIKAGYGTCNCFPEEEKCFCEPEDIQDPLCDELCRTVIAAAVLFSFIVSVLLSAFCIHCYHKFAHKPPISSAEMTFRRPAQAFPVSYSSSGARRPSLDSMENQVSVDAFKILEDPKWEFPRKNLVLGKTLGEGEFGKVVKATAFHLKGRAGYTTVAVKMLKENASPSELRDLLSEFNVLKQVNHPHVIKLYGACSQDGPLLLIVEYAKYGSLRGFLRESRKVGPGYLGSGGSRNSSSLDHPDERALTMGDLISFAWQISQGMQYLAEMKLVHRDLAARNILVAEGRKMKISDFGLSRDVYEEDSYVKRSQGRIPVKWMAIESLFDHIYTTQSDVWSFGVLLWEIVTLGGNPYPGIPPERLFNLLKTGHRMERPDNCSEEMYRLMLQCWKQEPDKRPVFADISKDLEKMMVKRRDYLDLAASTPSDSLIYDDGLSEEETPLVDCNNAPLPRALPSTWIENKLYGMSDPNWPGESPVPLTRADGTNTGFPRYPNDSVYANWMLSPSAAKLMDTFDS
Aurora kinase A, sequence (O14965 whole entry): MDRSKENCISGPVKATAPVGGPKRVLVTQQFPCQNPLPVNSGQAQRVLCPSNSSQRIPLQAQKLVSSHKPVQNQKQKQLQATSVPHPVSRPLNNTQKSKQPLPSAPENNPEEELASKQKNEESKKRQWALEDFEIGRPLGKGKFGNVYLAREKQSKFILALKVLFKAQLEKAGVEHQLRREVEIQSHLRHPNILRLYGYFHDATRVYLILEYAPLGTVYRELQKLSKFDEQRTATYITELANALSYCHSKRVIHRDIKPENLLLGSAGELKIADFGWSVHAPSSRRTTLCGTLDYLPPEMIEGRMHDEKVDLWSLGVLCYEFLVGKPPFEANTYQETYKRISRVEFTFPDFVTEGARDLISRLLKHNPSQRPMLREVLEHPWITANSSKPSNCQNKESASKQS

- pIC50 (MDA-MB-231): 5.13
- pIC50 (4T1): 5.25
- pIC50 [1]: 6.21
- pIC50 [2]: 5.96
SMILES: CN(CCOC(=O)c1ccc(C(=O)Nc2ncnc3c2c(-c2ccc(Cl)cc2)nn3C(C)(C)C)nc1)Cc1ccc(C(=O)Nc2ccc3ncnc(Nc4cccc(Cl)c4)c3c2)cc1

- pIC50 (Aurora kinase A): 7.46
- pIC50 [5]: 5.08
- GI50 (SW-1736): 4210 nM
SMILES: Cc1cc(S(=O)(=O)Nc2ccc(/C=C3\SC(=O)N(CC4(C)CCCCC4)C3=O)cc2)ccc1[N+](=O)[O-]
- GI50 (BCPAP): 3790 nM
- GI50 [3]: 1360 nM
- GI50 [4]: 4510 nM
- GI50 (FTC-133): 5900 nM
- GI50 (TPC1): 7260 nM
- GI50 [6]: 3370 nM

- pIC50 (MCF7): 6.30
- pIC50 (A-375): 7.00
- pIC50 (COLO 205): 7.05
- pIC50 (A549): 7.05
- pIC50 (HCT-116): 6.96
- pIC50 (LoVo): 7.10
- pIC50 [7]: 6.93
SMILES: CN(c1nc(-c2cnc(N)nc2)nc(N2CCOCC2)n1)C1CCN(C(=O)c2ccccc2)CC1

- pIC50 [8]: > 9.00
- pIC50 [9]: > 9.00
- pIC50 [10]: > 9.00
SMILES: O=C(Cc1ccc(-n2cnc3cc(-c4ccsc4)ccc32)cc1)Nc1cccc(C(F)(F)F)c1

- pIC50 (DU-145): 4.95
- pIC50 [11]: 6.99
SMILES: COc1cccc(-c2cc(=O)c3ccccc3o2)c1NC(=O)OCCOC(=O)NCCN(C)CCN/N=N/c1ccc2c(Nc3cccc(Cl)c3)ncnc2c1
- pIC50 (MES-SA): 4.61
